Results on 5 molecules are retold here after patent US20070161609A1, “Use of mitochondrially targeted antioxidant in treatment and prevention of drug-induced liver disease” (priority 2006, published 2007).

Series [1] concerns immortalized hepatocytes (Fa2N-4 or Ea1C-35). Briefly: Reactive oxygen species in immortalized hepatocytes. The class given is cell-based. To be noted: for ROS formation: hepatocytes intoxicated with e.g. paracetamol (10 mM for 2 hours), DDC or BSO, simultaneous treatment at EC50 concentrations.
Experimental: Tested hepatocytes are grown in 96-well plates in culture medium (DMEM supplemented with 10% FCS, Gibco) to 80% confluency in the presence of paracetamol, subsequently washed with HBSS and incubated in the dark with DHE (10-50 μM) for 10 minutes at 37° C. Cells are then washed twice with Hank's balanced salt solution (HBSS, Gibco) to remove excess dye. Fluorescence is monitored in a fluorescence microscope (Olympus, Hamburg, Germany).
To determineDCF fluorescence in a microplate reader (Tecan, Crailsheim, Germany), immortalized hepatocytes are grown in 96-well plates to 80% confluency in presence of paracetamol. The cells are then washed twice with Hank's balanced salt solution (HBSS, Gibco) and incubated in the dark with CM-H2DCFDA (8.5 μM) dissolved in HBSS containing N-co-nitro-L-arginine methyl ester (L-NAME, 10 μM) for 10 minutes at 37° C. to prevent the formation of NO. After several washes with HBSS to remove excess dye, fluorescence is monitored by using 480 nm excitation and 540 nm emission wavelength. DCF fluorescence is standardized to the number of viable cells using the Alamar Blue test according to the manufacturer's instructions (Biosource, Nivelles, Belgium). […] The absorbance is then measured at the wavelength of 580 nm.
Optionally, ROS production can be assessed by flow cytometric analysis of CM-H2DCFDA stained cells. The cells intoxicated with paracetamol are detached and harvested by trypsinisation, collected by centrifugation and resuspended in HBSS at a concentration of 1×10^6 cells/ml. Cells are then loaded with 8.5 μM CM-H2DCFDA for 15 minutes in the dark at 37° C. before stimulation. The DCF fluorescence is monitored by analyzing 10,000 cells using 480 nm excitation and 540 nm emission wavelengths in a flow cytometer (Partec, Muenster, Germany).
The hepatocytes are then washed once with HBSS (Hanks' Balanced Salt Solution, Gibco) and incubated with MitoQ in concentration range of 0.5 to 10 μM or the respective amount of DMSO (Sigma). After 15 min DCF is added to the cells (final concentration of 8 μM) and cells are incubated with the dye for 10 min. After loading the media is removed and fresh HBSS is added containing MitoQ and CoCl2 (100 μM).
After 3 subsequent washing the cells are equilibrated in plates containing 1 ml of 50 mmol/L HEPES (pH 7.4), 135 mmol/L NaCl, 1 mmol/L CaCl2, 1 mmol/L MgCl2, 5 mmol/L KCl, 5.5 mmol/L glucose, and 5 μmol/L lucigenin as the electron acceptor. The light reaction between superoxide and lucigenin is detected using a chemiluminescence reader (Lumistar, BMG laboratories, Germany). The chemiluminescence signal is expressed as average counts per minute and normalized to cell number as determined by cell counter (Casy Technology Instrument, Schärfe-System, Germany).
For series [2], the system named is DDC-intoxicated mouse liver. Kind of series: Hepatocyte damage in mouse liver upon 3 days exposure to DDC (0.1%), MitoQ versus vitamin E (histology). Particulars: MitoQ 12 mg/kg peritoneally, vitamin E 100 mg/kg subcutaneously.
Experimental: FIGS. 3a and 3b: Comparison of MitoQ (12 mg/kg of animal;given peritoneally) and vitamin E (100 mg/kg of animal, applied subcutneously) effect on the degree of hepatocyte damage in mouse liver upon short term (3 days) exposure to DDC (0.1%)
Controls receive 300 μPBS only. Vitamin E is given subcutaneously in the same intervals as MitoQ at doses of 40 to 100 mg/kg dissolved in corn oil/PBS (1:5).
For series [3], the system named is mice intoxicated with valproic acid. Briefly: Long term (three weeks) valproic acid intoxication, liver histology. In kind it is in vivo, mouse. Particulars: valproic acid 0.71% weight/volume for three weeks; 1.25 mg/kg daily i.p. or i.v.; compared to controls. Here is the method:
Chronic liver damage can be assessed in mice intoxicated with valproate (0.71% weight/volume) for up to 21 days when fatty degeneration of hepatocytes, activation of Kupffer cells, inflammation and hepatocyte necrosis can be detected (Raza M. 2000, Int J Tissue React., 22(1): 15-21).
In long term experiments by using mice intoxicated for three weeks with valproic acid (0.71% weight/volume), the presence (or absence) of cell damage in liver samples of treated animals is determined and compared to the corresponding control groups of animals.

In series [4] the test system is alanine- and aspartate aminotransferase. Briefly: Serum liver enzymes (blood parameters) in intoxicated animals. In kind it is in vivo, mouse. To be noted: compared to intoxicated control group.
The subject of the next series is hemoxygenase 1 (HO-1). Kind of series: Western blot of hemoxygenase 1 expression in liver extracts of intoxicated mice. In kind it is in vivo, mouse. Particulars: densitometry. The protocol:
To evaluate hemoxygenase 1 (HO-1) protein expression know to be induced by oxidative stress (Suematsu M. and Ishimura Y., 2000, Hepatology, 31(1): 3-6) standard western blot analysis is performed using protein extracts derived from paracetamol- (or carprofen) intoxicated mice treated simultaneously for 1day (or 3 days) with MitoQ (diluted in 1% DMSO in PBS), vitamin E or just vehicle itself (see protocols in Example 3).
(§1) Liver tissues are resuspended in ice-cold RIPA-buffer (50 mM Tris-HCl pH 7.4, 250 mM NaCl, 0.1% SDS, 1% deoxycholate, 1% NP-40) supplemented with 2 μg/ml leupeptin, 2 μg/ml pepstatin, 2 μg/ml aprotinin, 1 mM phenylmethylsulfonylfluoride (PMSF), and 2 mM dithiothreitol followed by homogenization through sonication (2 bursts of 5 seconds) on ice. After incubation for 20 minutes on ice, the lysates are cleared by two centrifugational steps in a microcentrifuge at 13,000 rpm for 15 minutes at 4° C. and the supernatants are collected. Protein concentrations are determined by the Bradford assay (Biorad) using bovine serum albumin as a standard. Equal amounts of protein (typically 10-30 μg) are separated on a 12% SDS-PAGE gel and transferred electrophoretically to a polyvinylidene diflouride (PVDF) membrane (Hybond-P, Amersham) through Semidry-blotting (TE 70, Amersham). […]

Series [5] deals with carprofen- and DDC-intoxicated mice livers. Briefly: Hepatocyte damage in mouse liver upon 3 days exposure to carprofen in combination with DDC (histology). In kind it is in vivo. Particulars: carprofen 5 mg/kg + DDC 0.1% in diet, MitoQ 300 nmol/animal in PBS/1% DMSO. The text has this:
Controls receive 300 μPBS only.

Series [6] concerns mitochondria within isolated cells. To be noted: in vitro; cited from earlier work.
For series [7] the following is noted: cited from earlier work; for gross signs of toxicity: fed in drinking water two or three days, 500 μM or 1 mM MitoQ or MitoS, 500 μM MitoVit E; for safety of long term feeding to mice: long term basis, potentially therapeutically effective concentrations within brain, heart, liver, muscle.
In series [8] the test system is paracetamol-intoxicated mice livers.
Experimental: Mice (8 weeks old) are fed a standard diet. Paracetamol is administered by oral gavage (500 mg/kg of animal). Carprofen is given by intraperitoneal injection (three times every 24 hours) in combination with 0.1% DDC which is included in the diet.
Mice are sacrified at different time-points of intoxication by cervical dislocation and the livers are either immediately snap-frozen in methylbutane precooled with liquid nitrogen for immunofluorescence or fixed in 4% buffered formaldehyde for routine histology and immunohistochemistry.
To evaluate the impact of the antioxidants according to the invention on regression of morphological alterations in early stages of paracetamol-intoxicated mice livers, a group of animals are treated on day one with MitoQ (a mixture of MitoQuinol [10-(3,6-dihydroxy-4,5-dimethoxy-2 methylphenyl)decyl]triphenylphosphonium bromide and MitoQuinone [10-(4,5-dimethoxy-2-methyl-3,6-dioxo-1,4-cyclohexadien-1-yl)decyl]-triphenylphosphonium bromide (provided by Prof. Albin Hermetter, TU Graz, AT), diluted with PBS/1% DMSO in three different concentrations (200 nM, 300 nM and 400 nM) intraperitoneally with maximum administration volume 100 μl (controls receive 100 μl PBS/1% DMSO only). For injections, MitoQ is dissolved in PBS supplemented with sufficient DMSO (preferably 1%) to maintain solubility of antioxidants. Intraperitoneal or i.v. (tail vein) injections are given to pairs of mice and compared with vehicle-injected controls. These correspond to maximum tolerated dose of 20 mg of MitoQ/kg/day (750 nmol) according to Smith R. A. J et al., 2003, PNAS, 100 (9): 5407-5412.
On the second day MitoQ treatment is continued, additionally mice are intoxicated with 500 mg/kg paracetamol diluted with PBS po (maximum administration volume is 300 μl).
Series [9] has as its system fatty acid binding protein (FABP). Kind of series: Western blot of fatty acid binding protein in liver extracts of intoxicated mice. In kind it is in vivo, mouse. To be noted: drug-intoxicated (paracetamol or carprofen) animals; versus non intoxicated vehicle controls. The protocol: as §1, with “Amersham). The membrane is blocked for 1 hour at room temperature in blocking solution [5% milk in TBS-T (25 mM Tris-HCl pH 7.4, 137 mM NaCl, 3 mM KCl, comprising 0.1% Tween-20)] and incubated with the primary antibody solution (prepared in TBS-T/1% milk) at 4° C. overnight with agitation.” for “Amersham).”
Furthermore, the protein expression level(s) of fatty acid binding protein (FABP) representing a sensitive marker for hepatocyte damage (Monbaliu D. et al., 2005, Transplant Proc. 37(1):413-416) is determined.
(In western blotting, separated proteins are transferred to a membrane and probed.)

The mark [10] stands for this setting: concentration used for treatment of intoxicated immortalized hepatocytes, read-out: EC50.
The mark [11] stands for this setting: paracetamol 500 mg/kg, 1 day, MitoQ 300 nmol/animal in PBS/1% DMSO, simultaneous, 24 hours pretreatment.

“Also recorded” adds a separate entry of the source. Like-named read-outs stand apart in the source and are kept apart here.

Turning to `CCOC(=O)C1=C(C)NC(C)=C(C(=O)OCC)C1C` [DDC], the EC50 (commonly the concentration giving half of the maximal effect) in series [1] (intoxicant, hepatocytes incubated up to 72 hours in culture medium (DMEM and 10% FCS)) is on record as 50 μg/ml of medium.

Take MitoQ: in series [2], the inflammatory cells entry is on record as “absent”, the liver morphology result is “restores normal liver morphology” and the “protoporphyrin accumulation in the bile ducts” value was “persists”. Moreover, the “degree of cell damage” value in series [3] is “greatly reduced”. In addition, the “reduction of liver damage by serum liver enzymes (alanine- and aspartate aminotransferase)” value in series [4] is “significant reduction”. Moreover, the HO-1 protein expression result in the series with hemoxygenase 1 (HO-1) (compared to paracetamol intoxicated group of animals) is “significant reduction”. Moreover, in the series with hemoxygenase 1 (HO-1) (compared to vitamin E treated mice), the HO-1 protein expression result is listed as “less significant reduction”. Further, in series [5], the inflammatory cells entry is on record as “absent” and the liver morphology result is on record as “restores normal liver morpohology”. Also, the accumulation by mitochondria entry in series [6] was “rapidly and selectively accumulated”. In series [7], the “gross signs of toxicity” value is on record as “without any gross signs of toxicity” and the “safety of long term feeding to mice” value was “could be fed safely”. Further, the EC50 in series [1] (setting [10]) was found to be 1 µM. In addition, the ROS formation entry in series [1] is “significant reduction”. In [8] (setting [11]), the “blood congestion in the sinusoids” value is on record as “reduces blood congestion in the sinusoids” and the necrotic hepatocytes entry is on record as “only few single necrotic cells are seen”. In addition, in series [8] (short-term experiments overall (paracetamol; carprofen + DDC), compared to vitamin E or untreated animals), the “liver architecture (strands of hepatocytes bordered by sinusoids)” value was “is again visible”. In [9], the FABP protein expression entry is “reaches almost control mice FABP protein expression values; also recorded: reach almost control mice FABP expression values”.

In the case of `C[P+](c1ccccc1)(c1ccccc1)c1ccccc1` [TPMP, reference compound], the “safety of long term feeding to mice” value in series [7] is “could be fed safely”.

Regarding vitamin E [reference compound], in series [2], the inflammatory cells entry was “still present in the periportal area”, the liver morphology result was “only partially restores normal liver morphology” and the “protoporphyrin accumulation in the bile ducts” value is recorded as “persists”. Besides, the “reduction of liver damage by serum liver enzymes (alanine- and aspartate aminotransferase)” value in series [4] is reported as “less significant effect”. Further, the EC50 in series [1] (setting [10]) worked out at 10 µM. Also, the ROS formation entry in series [1] is reported as “significant reduction”.

Regarding `Cc1c(C)c2c(c(C)c1O)CCC(C)(CC[P+](c1ccccc1)(c1ccccc1)c1ccccc1)O2` (stereo not drawn) [MitoVit E, [2-(3,4-dihydro-6-hydroxy-2,5,7,8-tetramethyl-2H-1-benzopyran-2-yl)ethyl]-triphenylphosphonium bromide], in series [6], the accumulation by mitochondria entry is “rapidly and selectively accumulated”. Further, the maximum tolerated dose in [7] (500 μM in drinking water) is 60 mg/kg/day. In series [7], the “gross signs of toxicity” value is reported as “without any gross signs of toxicity” and the “safety of long term feeding to mice” value was “could be fed safely”.
